Laboratory results published in patent US20120196830A1, “KITS AND IMPROVED COMPOSITIONS FOR TREATING LOWER URINARY TRACT DISORDERS” (priority 2005, published 2012).
Like-named read-outs stand apart in the source and are kept apart here.

Legend:
IC patients [1] = settings: intravesical instillations; cited from earlier work
cancer patients = settings: cited from earlier work
IC patients [2] = settings: intravesical, interstitial cystitis; cited from earlier work
[3] = Uncharged fraction of lidocaine by Henderson-Hasselbalch equation; format: physicochemical
Excerpt: For the acute-acting anesthetic to function properly, it typically needs to be in a pH environment that enables the chemical form of the drug to be neutral thereby allowing the molecule to traverse the membranes and gain access to the neurons underlying the bladder epithelium. To achieve this pH, a buffer must be provided so that the pH is sufficiently near to the isoelectric point of the chosen anesthetic to ensure that a sufficient portion of the acute-acting anesthetic is present in an uncharged state. A sufficient portion can minimally be 20% up to 100% in its uncharged state and those skilled in the art can use the drug's isoelectric point and the Henderson-Hasselbalch equation to calculate the minimal pH of the solution to achieve the 20% minimal uncharged amount. Preferably, the pH of the solution is such that at least about 40% of the acute-acting anesthetic is present in an uncharged state. […]. This buffering can be achieved by the addition of bicarbonate buffer, Tris (Tris(hydroxymethyl)aminomethane) buffer, MOPS buffer (3-(N-morpholino)propanesulfonic acid), HEPES (N-(2-hydroxyethyl)piperazine-N′-(2-ethanesulfonic acid) buffer, ACES (2-[(2-amino-2-oxoethyl)amino]ethanoesulfonic acid) buffer, ADA (N-(2-acetamido)-2-iminodiacetic acid) buffer, AMPSO (3-[(1,1-dimethyl-2-hydroxyethyl)amino]-2-propanesulfonic acid) buffer, BES (N,N-bis(2-hydroxyethyl)-2-aminoethanesulfonic acid buffer, Bicine (N,N-bis(2-hydroxyethylglycine) buffer, Bis-Tris (bis-(2-hydroxyethyl)imino-tris(hydroxymethyl)methane buffer, CAPS (3-(cyclohexylamino)-1-propanesulfonic acid) buffer, CAPSO (3-(cyclohexylamino)-2-hydroxy-1-propanesulfonic acid) buffer, CHES (2-(N-cyclohexylamino)ethanesulfonic acid) buffer, DIPSO (3-[N,N-bis(2-hydroxyethyl)amino]-2-hydroxy-propanesulfonic acid) buffer, HEPPS(N-(2-hydroxyethylpiperazine)-N′-(3-propanesulfonic acid), buffer, HEPPSO(N-(2-hydroxyethyl)piperazine-N′-(2-hydroxypropanesulfonic acid) buffer, MES (2-(N-morpholino)ethanesulfonic acid) buffer, triethanolamine buffer, imidazole buffer, glycine buffer, ethanolamine buffer, phosphate buffer, MOPSO (3-(N-morpholino)-2-hydroxypropanesulfonic acid) buffer, PIPES (piperazine-N,N′-bis(2-ethanesulfonic acid) buffer, POPSO (piperazine-N,N′-bis(2-hydroxypropaneulfonic acid) buffer; TAPS(N-tris[hydroxymethyl)methyl-3-aminopropanesulfonic acid) buffer, TAPSO (3-[N-tris(hydroxymethyl)methylamino]-2-hydroxy-propanesulfonic acid) buffer, TES (N-tris(hydroxymethyl)methyl-2-aminoethanesulfonic acid) buffer, tricine (N-tris(hydroxymethyl)methylglycine buffer), 2-amino-2-methyl-1,3-propanediol buffer, 2-amino-2-methyl-1-propanol buffer, or another buffer that can buffer the composition to be administered at the appropriate pH value. The buffer to be selected, and the concentration of the buffer to be used, can be chosen by one of ordinary skill in the art to buffer the composition to be administered at a pH value that is close to the isoelectric point of the local anesthetic. […]. For bupivacaine, it is 8.1. For etidocaine, it is 7.7. For flecamide, it is 9.3. Typically, the pH achieved by the use of the buffer is between about 7.0 and about 12.0. More typically, the pH achieved by the use of the buffer is between about 7.0 and about 9.5. Typically, when bicarbonate buffer is used, it is sodium bicarbonate buffer; however, other counterions can be used as described above.

In the case of C[S+](C)[O-] [DMSO, dimethylsulfoxide], the “IC patients treated with benefit” value (IC patients [1]) is given as roughly 50%.

For O=S(=O)(O)CCS [Mesnex, mesna], the “frequency of adverse events (all AEs)” value (cancer patients; IV) is given as 85% and the “frequency of adverse events (all AEs)” value (cancer patients; oral) is given as 89%.

In the case of heparin, the “patients treated in whom effective” value (IC patients [2]) is given as “approximately 50%”.

CCN(CC)CC(=O)Nc1c(C)cccc1C [lidocaine] showed a lidocaine uncharged ([3]; pH 6.6) of 5%, a lidocaine uncharged ([3]; pH 7.0) of 10% and a lidocaine uncharged ([3]; pH 7.2) of 20%. The lidocaine uncharged ([3]; pH 7.5) was 30%, the lidocaine uncharged ([3]; pH 7.7) was 40% and the lidocaine uncharged ([3]; pH 7.9) was 50%.
